Patent publication US10364256B2 (GlaxoSmithKline Intellectual Property Development Limited, priority 2015, dated 2019)
pEC50, pIC50: −log10 of the molar value. Read-outs that look alike come from different tables or passages of the source.

Legend:
[1] = target: T1, Keap1 Kelch domain (321-609) / TAMRA-labeled 16mer NRF2 peptide (ETGE motif) (Homo sapiens, UniProt Q14145); experiment: NRF2-Keap1 FP Assay (Keap1 Kelch fluorescence polarization); type: binding; conditions: 20 nM Keap1 (321-609), 8 nM Tamra labeled peptide
T1 construct: the Kelch domain (321-609) of Keap1 is used
T1 sequence (Q14145 321-609): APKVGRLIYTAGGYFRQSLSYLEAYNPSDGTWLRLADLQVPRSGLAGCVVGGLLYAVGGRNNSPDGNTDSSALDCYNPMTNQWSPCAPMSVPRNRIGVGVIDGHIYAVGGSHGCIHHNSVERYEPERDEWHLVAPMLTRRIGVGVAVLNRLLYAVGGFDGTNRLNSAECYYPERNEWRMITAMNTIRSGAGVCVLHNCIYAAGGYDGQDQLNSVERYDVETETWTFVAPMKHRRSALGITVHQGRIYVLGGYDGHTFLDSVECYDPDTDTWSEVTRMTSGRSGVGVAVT
Text: One model for the NRF2-Keap1 interaction is through two binding sites in the Neh2 domain on NRF2. The two sites are referred to as the DLG binding motif (latch domain, uM affinity) and the ETGE binding motif (hinge domain, nM affinity). The Keap1 protein consists of an N-terminal region (NTR), a broad complex, tramtrack, and brick a′ brac domain (BTB), an intervening region (IVR), a double glycine repeat domain (DGR or Kelch), and a C-terminal region. The DLG and ETGE motifs of NRF2's Neh2 domain bind to the Kelch domain of Keap1 at different affinities. In the Keap1 Kelch fluorescence polarization (FP) assay, a TAMRA-labeled 16mer peptide (AFFAQLQLDEETGEFL) containing the ETGE motif of NRF2 and the Kelch domain (321-609) of Keap1 is used. The assay determines if a compound interferes with the binding between Keap1 […] and the TAMRA-labeled peptide. Binding of TAMRA-labeled NRF2 peptide to Keap1 (321-609) results in a high FP signal. If a compound interferes with the binding between the peptide and the protein, it will cause the assay signal to decrease. Thus, assay signal is inversely proportional to binding inhibition.
100 nl of 100× compound dose response curves (serial 3-fold dilutions) in DMSO are stamped using an Echo liquid handling system (Labcyte) into 384-well low volume black assay plates (Greiner, #784076), with DMSO in columns 6 and 18. The top concentration of compound is located in columns 1 and 13. Keap1 (321-609) is diluted to 40 nM (2×) in 1× assay buffer (50 mM Tris, pH 8.0, 100 mM NaCl, 5 mM MgCl2, 1 mM DTT, 2 mM CHAPS, and 0.005% BSA) and 5 ul is added using a Multidrop Combi (Thermo Electron Corporation) equipped with a metal tip dispenser to all wells of the compound plate, except column 18. Column 18 receives only 5 ul of assay buffer. Immediately, 5 uL of 16 nM (2×) of Tamra labeled peptide (AFFAQLQLDEETGEFL, 21st Century Biochemicals) is added to all wells of the plate. The plates are spun at 500 rpm for 1 min, incubated for 1 hr at room temperature, and read on an Analyst GT (Molecular Devices) equipped with excitation (530/25 nm) and emission (580/10 nm) filters designed for Tamra probes. A 561 nm dichroic mirror is also used in the Analyst. The final assay concentrations of Keap1 (321-609) and Tamra labeled peptide are 20 nM and 8 nM, respectively. Fluorescence measurements, represented as mP, are used in the transformation of the data. Compound activity is calculated based on percent inhibition, normalized against controls in the assay (Control 1 contains the Tamra peptide and Keap1 (321-609) together (0% response) and control 2 contains the Tamra peptide alone (100% response)). Data analysis is handled using the software package Abase XE (Surrey, United Kingdom. The % inhibition values are calculated by the equation: 100−(100*((compound response−average control 2)/(average control 1−average control2))). For calculation of pIC50s, Abase XE uses a four parameter equation. pIC50 is the negative log of the IC50.

[2] = target: T2, full length Keap1 protein / full length NRF2 protein (Homo sapiens, UniProt Q14145); experiment: NRF2-Keap1 TR-FRET Low Protein Assay; type: binding; conditions: 1.25 nM Keap1 FlagHis and 2.5 nM biotin-NRF2 added
T2 construct: full length NRF2 protein and full length Keap1 protein (Keap1 exists a dimer) are used; His
T2 sequence (Q14145 whole entry): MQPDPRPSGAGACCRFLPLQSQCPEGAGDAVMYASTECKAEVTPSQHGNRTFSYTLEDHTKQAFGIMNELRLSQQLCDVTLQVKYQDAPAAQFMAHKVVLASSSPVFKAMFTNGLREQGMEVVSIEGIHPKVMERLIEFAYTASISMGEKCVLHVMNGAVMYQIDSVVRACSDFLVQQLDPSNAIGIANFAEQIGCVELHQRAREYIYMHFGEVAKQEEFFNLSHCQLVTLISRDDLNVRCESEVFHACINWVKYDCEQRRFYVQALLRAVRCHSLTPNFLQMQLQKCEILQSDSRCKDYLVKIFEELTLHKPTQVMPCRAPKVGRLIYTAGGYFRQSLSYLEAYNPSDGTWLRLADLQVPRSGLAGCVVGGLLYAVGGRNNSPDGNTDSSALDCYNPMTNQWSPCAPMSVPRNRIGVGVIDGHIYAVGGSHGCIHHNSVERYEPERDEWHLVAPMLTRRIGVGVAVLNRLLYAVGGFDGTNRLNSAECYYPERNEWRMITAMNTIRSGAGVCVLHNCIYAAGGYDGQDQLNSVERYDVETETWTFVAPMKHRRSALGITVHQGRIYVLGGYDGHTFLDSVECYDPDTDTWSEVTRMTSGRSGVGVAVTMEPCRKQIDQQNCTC
Text: NRF2-Keap1 TR-FRET Low Protein Assay In the NRF2-Keap1 TR-FRET (time-resolved fluorescence resonance energy transfer) low protein assay, full length NRF2 protein and full length Keap1 protein (Keap1 exists a dimer) are used. The assay detects a compound's ability to displace the binding of Keap1 […] with biotinylated Avi-NRF2 protein. Biotin-NRF2 binds to streptavidin-europium (a component of the detection mix) and Keap1 […] is recognized by anti-Flag APC (allophycocyanin) antibody (also a component of the detection mix). If binding occurs between the two proteins, there will be an energy transfer from the Eu+3 (donor) at 615 nm to the APC (acceptor) at 665 nm. A potential NRF2 inhibitor will cause a reduction in the TR-FRET signal by interfering with the binding of Keap1 to NRF2. Ten nanoliters of 100× compound dose response curves (serial 3-fold dilutions) in DMSO are stamped using an Echo liquid handling system (Labcyte) into 384-well, low volume, black assay plates (Greiner, #784076), with DMSO in columns 6 and 18. An additional 90 nl DMSO is added to each well, to bring the total volume to 100 nl per well. The top concentration of compound is located in columns 1 and 13, with the serial dilutions going across the row. All reagents are diluted in assay buffer (50 mM Tris, pH 8.0, 5 mM MgCl2, 100 mM NaCl, 0.005% BSA, 1 mM DTT, and 2 mM CHAPS. The BSA, DTT, and CHAPS are added to the assay buffer on the day of assay. […] Wells in column 18 receive 5 ul of assay buffer instead. Plates are centrifuged at 500 rpm for 1 minute, covered with a plate lid, and incubated at 37° C. for 2.25 hours. Plates are then removed from the incubator and allowed to cool to RT for 15 minutes. Five microliters of 2.5 nM biotin-NRF2 protein is then added to all wells of the plates and the plates are spun at 500 rpm for 1 minute, followed by incubating at 4° C. for 1.25 hours. The plates are then allowed to warm to RT for 15 minutes, followed by the addition of 10 ul of detection mix (1 nM Streptavidin Eu+W1024 and 5 ug/ml mouse anti-DYKDDDDK IgG conjugated to SureLight APC antibody; both from Columbia Biosciences) to all wells. Plates are spun at 500 rpm for 1 minute, incubated for 1 hour at RT, and read on an Envision plate reader using a 320 nm excitation filter and 615 nm and 665 nm emission filters. […] Data analysis is handled using the software package Abase XE (Surrey, United Kingdom). […] For calculation of pIC50s, Abase XE uses a four parameter equation. pIC50 is the negative log of the IC50.

[3] = system: NQO1 specific enzyme activity in BEAS-2B cells (marker for NRF2 activation); experiment: BEAS-2B NQO1 MTT Assay; type: cell-based; conditions: Homo sapiens
Text: BEAS-2B NQO1 MTT Assay NAD(P)H:quinone oxidoreductase 1 (NQO1), also called DT diaphorase, is a homodimeric FAD-containing enzyme that catalyzes obligatory NAD(P)H-dependent two-electron reductions of quinones and protects cells against the toxic and neoplastic effects of free radicals and reactive oxygen species arising from one-electron reductions. The transcription of NQO1 is finely regulated by NRF2, and thus NQO1 activity is a good marker for NRF2 activation. On day one, frozen BEAS-2B cells (ATCC) are thawed in a water bath, counted, and re-suspended at a concentration of 250,000 cells/mL. Fifty microliters of cells are plated in 384 well black clear-bottomed plates. Plates are incubated at 37° C., 5% CO2 overnight. On day two, plates are centrifuged and 50 nL of compound or controls are added to the cells. Plates are then incubated at 37° C., 5% CO2 for 48 hours. On day four, medium is aspirated from the plate and crude cell lysates are made by adding 13 uL of 1× Cell Signaling Technologies lysis buffer with 1 Complete, Mini, EDTA-free Protease Inhibitor Tablet (Roche) for each 10 mL of lysis buffer. After lysis plates are incubated for 20 minutes at room temperature. Two microliters of lysate are removed for use in Cell Titer Glo assay (Promega) and MTT cocktail is prepared (Prochaska et. al. 1998) for measurement of NQO1 activity. Fifty microliters of MTT cocktail is added to each well, plate is centrifuged, and analyzed on an Envision plate reader (Perkin Elmer) using Absorbance 570 nm label for 30 minutes. Product formation is measured kinetically and the pEC50 of NQO1 specific activity induction is calculated by plotting the change in absorbance (Delta OD/min) versus the log of compound concentration followed by 3-parameter fitting. pEC50 is the negative log of the EC50.

[4] = compound incubated 48 hours, read-out: EC50 (NQO1 specific enzyme activity induction)

Structure (SMILES): CC[C@@H]1CN(Cc2cccc(-c3cccc(-n4ncc(C(=O)O)c4[C@@H]4C[C@H]4c4cn(C)nn4)c3)c2)S(=O)(=O)c2ccccc2O1 [Example 255, 1-(3′-(((R)-4-Ethyl-1,1-dioxido-3,4-dihydro-2H-benzo[b][1,4,5]oxathiazepin-2-yl)methyl)-[1,1′-biphenyl]-3-yl)-5-(trans-2-(1-methyl-1H-1,2,3-triazol-4-yl)cyclopropyl)-1H-pyrazole-4-carboxylic Acid]
- pIC50 [1]: 7.00 to 8.00
- pIC50 [2]: > 8.00
- pEC50 [3, 4]: 6.00 to 7.00
- pEC50 ([3]; in two determinations (footnote ϕ), read-out: EC50 in two determinations): < 6.00

Structure (SMILES): CC[C@H]1c2ccccc2OC(C)(C)CN1Cc1cccc(-c2cccc(-n3ncc(C(=O)O)c3[C@@H]3C[C@H]3c3cn(C)nn3)c2)c1 (single isomer, unassigned; isomer 1) [Example 124]
- pIC50 [1]: 7.00 to 8.00
- pIC50 [2]: > 8.00
- pEC50 [3, 4]: 7.00 to 8.00

Structure (SMILES): CC[C@@H]1CN(Cc2cccc(-c3cccc(-n4ncc(C(=O)O)c4[C@H]4C[C@@H]4c4cn(C(C)C)nn4)c3)c2)Cc2ccccc2O1 (racemic) [Example 128, 1-(3′-(((R)-2-ethyl-2,3-dihydrobenzo[f][1,4]oxazepin-4(5H)-yl)methyl)-[1,1′-biphenyl]-3-yl)-5-((1,2-trans)-2-(1-isopropyl-1H-1,2,3-triazol-4-yl)cyclopropyl)-1H-pyrazole-4-carboxylic Acid]
- pIC50 [1]: 7.00 to 8.00
- pIC50 [2]: > 8.00
- pEC50 [3, 4]: 6.00 to 7.00

Structure (SMILES): C[C@H](Oc1cccc(-c2cccc(-n3ncc(C(=O)O)c3[C@@H]3C[C@H]3c3cn(C4CCN(C)CC4)nn3)c2)c1)C1CCCCC1 (racemic) [Example 82, 1-(3′-((S)-1-Cyclohexylethoxy)-[1,1′-biphenyl]-3-yl)-5-(trans-2-(1-(1-methylpiperidin-4-yl)-1H-1,2,3-triazol-4-yl)cyclopropyl)-1H-pyrazole-4-carboxylic acid]
- pIC50 [1]: 7.00 to 8.00
- pIC50 [2]: 7.00 to 8.00
- pEC50 [3, 4]: 7.00 to 8.00

Structure (SMILES): CCC1c2ccccc2OCCN1Cc1cccc(-c2cccc(-n3ncc(C(=O)O)c3[C@H]3C[C@@H]3c3cn(C)nn3)c2)c1 (mixture of isomers) [Example 123, 1-(3′-((5-Ethyl-2,3-dihydrobenzo[f][1,4]oxazepin-4(5H)-yl)methyl)-[1,1′-biphenyl]-3-yl)-5-((1,2-trans)-2-(1-methyl-1H-1,2,3-triazol-4-yl)cyclopropyl)-1H-pyrazole-4-carboxylic Acid]
- pIC50 [1]: 7.00 to 8.00
- pIC50 [2]: 7.00 to 8.00
- pEC50 [3, 4]: 7.00 to 8.00

Structure (SMILES): CCC[C@@H]1CCCCN1C(=O)c1cccc(-c2cccc(-n3ncc(C(=O)O)c3[C@@H]3C[C@H]3c3cc(C)no3)c2)c1F (racemic) [Example 117, 1-(2′-fluoro-3′-((R)-2-propylpiperidine-1-carbonyl)-[1,1′-biphenyl]-3-yl)-5-(trans-2-(3-methylisoxazol-5-yl)cyclopropyl)-1H-pyrazole-4-carboxylic Acid]
- pIC50 [1]: 7.00 to 8.00
- pIC50 [2]: > 8.00
- pEC50 [3, 4]: 7.00 to 8.00

Structure (SMILES): C[C@H](Oc1cccc(-c2cccc(-n3ncc(C(=O)OCOC(=O)c4ccccc4)c3[C@@H]3C[C@H]3c3cn(C)nn3)c2)c1)C1CCCCC1 [Example 111, (Benzoyloxy)methyl 1-(3′-((S)-1-cyclohexylethoxy)-[1,1′-biphenyl]-3-yl)-5-((1R,2R)-2-(1-methyl-1H-1,2,3-triazol-4-yl)cyclopropyl)-1H-pyrazole-4-carboxylate]
- pIC50 [1]: < 5.00
- pIC50 [2]: 6.00 to 7.00
- pEC50 [3, 4]: 8.00 to 9.00

Structure (SMILES): CCn1cc([C@@H]2C[C@H]2c2c(C(=O)O)cnn2-c2cccc(-c3cccc(O[C@@H](C)C4CCCCC4)c3)c2)nn1 (racemic) [Example 76, 1-(3′-((S)-1-Cyclohexylethoxy)-[1,1′-biphenyl]-3-yl)-5-(trans-2-(1-ethyl-1H-1,2,3-triazol-4-yl)cyclopropyl)-1H-pyrazole-4-carboxylic acid]
- pIC50 [1]: 7.00 to 8.00
- pIC50 [2]: 7.00 to 8.00
- pEC50 [3, 4]: 8.00 to 9.00

Structure (SMILES): Cn1cc([C@@H]2C[C@H]2c2c(C(=O)O)cnn2-c2cccc(-c3cccc(S(=O)(=O)N4CCCCC4)c3)c2)nn1 (racemic) [Example 143, 5-((1,2-trans)-2-(1-Methyl-1H-1,2,3-triazol-4-yl)cyclopropyl)-1-(3′-(piperidin-1-ylsulfonyl)-[1,1′-biphenyl]-3-yl)-1H-pyrazole-4-carboxylic Acid]
- pIC50 [1]: 7.00 to 8.00
- pIC50 [2]: 7.00 to 8.00
- pEC50 [3, 4]: 6.00 to 7.00
